Assay results from patent publication US20260262643A1, “HERBICIDAL BENZOXAZINES” (FMC CORPORATION, priority 2022, published 2026).

Legend:
barnyardgrass [1] = experiment: Test D flooded paddy test; type: in vivo, Echinochloa crus-galli; conditions: 250 g ai/ha, applied to paddy water, visual rating after 13 to 14 days, scale 0 to 100 (0 no effect, 100 complete control)
Experimental: (§1) Plant species in the flooded paddy test selected from barnyardgrass (Echinochloa crus-galli), ducksalad (Heteranthera limosa), rice (Oryza sativa), and sedge, umbrella (small-flower umbrella sedge, Cyperus difformis) were grown to the 2-leaf stage for testing. At time of treatment, test pots were flooded to 3 cm above the soil surface, treated by application of test compounds directly to the paddy water, and then maintained at that water depth for the duration of the test. Treated plants and controls were maintained in a greenhouse for 13 to 14 days, after which time all species were compared to controls and visually evaluated. Plant response ratings, summarized in Table D, are based on a scale of 0 to 100 where 0 is no effect and 100 is complete control. A dash (-) response means no test result.

ducksalad = experiment: Test D flooded paddy test; type: in vivo, Heteranthera limosa; conditions: 250 g ai/ha, applied to paddy water, visual rating after 13 to 14 days, scale 0 to 100 (0 no effect, 100 complete control)
Experimental: as §1

rice = experiment: Test D flooded paddy test; type: in vivo, Oryza sativa; conditions: 250 g ai/ha, applied to paddy water, visual rating after 13 to 14 days, scale 0 to 100 (0 no effect, 100 complete control)
Experimental: as §1

sedge, umbrella = experiment: Test D flooded paddy test; type: in vivo, Cyperus difformis; conditions: 250 g ai/ha, applied to paddy water, visual rating after 13 to 14 days, scale 0 to 100 (0 no effect, 100 complete control)
Experimental: as §1

barnyardgrass [2] = experiment: Test C preemergence; type: in vivo, Echinochloa crusgalli
Procedure, shortened: (§2)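 Seeds sown in loam soil–sand blend received a directed preemergence soil spray of test chemical in non-phytotoxic solvent with surfactant; postemergence plants (2–10 cm, one- to two-leaf stage) were sprayed with the same formulation. Greenhouse-held 10 days, then visually rated for injury versus untreated controls, 0 (no effect) to 100 (complete control).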

blackgrass [3] = experiment: Test C preemergence; type: in vivo, Alopecurus myosuroides
Procedure, shortened: as §2

corn [4] = experiment: Test C preemergence; type: in vivo, Zea mays
Procedure, shortened: as §2

green foxtail [5] = experiment: Test C preemergence; type: in vivo, Setaria viridis
Procedure, shortened: as §2

kochia [6] = experiment: Test C preemergence; type: in vivo, Bassia scoparia
Procedure, shortened: as §2

oat, wild [7] = experiment: Test C preemergence; type: in vivo, Avena fatua
Procedure, shortened: as §2

pigweed, palmer [8] = experiment: Test C preemergence; type: in vivo, Amaranthus palmeri
Procedure, shortened: as §2

ragweed [9] = experiment: Test C preemergence; type: in vivo, Ambrosia artemisiifolia
Procedure, shortened: as §2

ryegrass, Italian [10] = experiment: Test C preemergence; type: in vivo, Lolium multiflorum
Procedure, shortened: as §2

soybean [11] = experiment: Test C preemergence; type: in vivo, Glycine max
Procedure, shortened: as §2

wheat [12] = experiment: Test C preemergence; type: in vivo, Triticum aestivum
Procedure, shortened: as §2

barnyardgrass [13] = experiment: Test C postemergence; type: in vivo, Echinochloa crusgalli; conditions: 10 days, 0 to 100 scale, 0 no effect, 100 complete control
Procedure, shortened: as §2

blackgrass [14] = experiment: Test C postemergence; type: in vivo, Alopecurus myosuroides; conditions: 10 days, 0 to 100 scale, 0 no effect, 100 complete control
Procedure, shortened: as §2

corn [15] = experiment: Test C postemergence; type: in vivo, Zea mays; conditions: 10 days, 0 to 100 scale, 0 no effect, 100 complete control
Procedure, shortened: as §2

green foxtail [16] = experiment: Test C postemergence; type: in vivo, Setaria viridis; conditions: 10 days, 0 to 100 scale, 0 no effect, 100 complete control
Procedure, shortened: as §2

kochia [17] = experiment: Test C postemergence; type: in vivo, Bassia scoparia; conditions: 10 days, 0 to 100 scale, 0 no effect, 100 complete control
Procedure, shortened: as §2

oat, wild [18] = experiment: Test C postemergence; type: in vivo, Avena fatua; conditions: 10 days, 0 to 100 scale, 0 no effect, 100 complete control
Procedure, shortened: as §2

pigweed, palmer [19] = experiment: Test C postemergence; type: in vivo, Amaranthus palmeri; conditions: 10 days, 0 to 100 scale, 0 no effect, 100 complete control
Procedure, shortened: as §2

ragweed [20] = experiment: Test C postemergence; type: in vivo, Ambrosia artemisiifolia; conditions: 10 days, 0 to 100 scale, 0 no effect, 100 complete control
Procedure, shortened: as §2

ryegrass, Italian [21] = experiment: Test C postemergence; type: in vivo, Lolium multiflorum; conditions: 10 days, 0 to 100 scale, 0 no effect, 100 complete control
Procedure, shortened: as §2

soybean [22] = experiment: Test C postemergence; type: in vivo, Glycine max; conditions: 10 days, 0 to 100 scale, 0 no effect, 100 complete control
Procedure, shortened: as §2

wheat [23] = experiment: Test C postemergence; type: in vivo, Triticum aestivum; conditions: 10 days, 0 to 100 scale, 0 no effect, 100 complete control
Procedure, shortened: as §2

galium = experiment: Test C postemergence; type: in vivo, Galium aparine; conditions: 10 days, 0 to 100 scale, 0 no effect, 100 complete control
Procedure, shortened: as §2

horseweed = experiment: Test C postemergence; type: in vivo, Erigeron canadensis; conditions: 10 days, 0 to 100 scale, 0 no effect, 100 complete control
Procedure, shortened: as §2

[24] = Preemergence, 31 g ai/ha, 0 to 100 scale, 0 no effect, 100 complete control
[25] = Test C, preemergence, 125 g ai/ha, 0 to 100 scale (0 no effect, 100 complete control)

In the case of `COC(=O)N(C)c1ncn(-c2cccc(C(=O)N3C[C@H](C)Oc4c(C)cccc43)c2)n1` [Compound 300], the “Plant response rating, Barnyardgrass (Flood)” value (barnyardgrass [1]) is reported as 0, the “Plant response rating, Ducksalad (Flood)” value (ducksalad) is reported as 0 and the “Plant response rating, Rice (Flood)” value (rice) is reported as 0. For the same molecule, the “Plant response rating, Sedge, Umbrella (Flood)” value (sedge, umbrella) was 0.

With `Cc1ccc(-n2cnc(C3(O)CCCC3)n2)cc1C(=O)N1C[C@H](C)Oc2c(Cl)cccc21` [Compound 193] the “Plant response rating, Barnyardgrass” value (barnyardgrass [2]; [24]) was 10, the “Barnyardgrass plant response rating” value (barnyardgrass [2]; [25]) was 80 and the “Plant response rating, Blackgrass” value (blackgrass [3]; [24]) was 0. The “Blackgrass plant response rating” value (blackgrass [3]; [25]) was 0, the “Plant response rating, Corn” value (corn [4]; [24]) was 0 and the “Corn plant response rating” value (corn [4]; [25]) was 0. The “Plant response rating, Foxtail, Green” value (green foxtail [5]; [24]) was 0, the “Foxtail, Green plant response rating” value (green foxtail [5]; [25]) was 0 and the “Plant response rating, Kochia” value (kochia [6]; [24]) was 60. The “Kochia plant response rating” value (kochia [6]; [25]) was 100, the “Plant response rating, Oat, Wild” value (oat, wild [7]; [24]) was 0 and the “Oat, Wild plant response rating” value (oat, wild [7]; [25]) was 20. The “Plant response rating, Pigweed, Palmer” value (pigweed, palmer [8]; [24]) was 60, the “Pigweed, Palmer plant response rating” value (pigweed, palmer [8]; [25]) was 90 and the “Plant response rating, Ragweed” value (ragweed [9]; [24]) was 0. The “Ragweed plant response rating” value (ragweed [9]; [25]) was 60, the “Plant response rating, Ryegrass, Italian” value (ryegrass, Italian [10]; [24]) was 60 and the “Ryegrass, Italian plant response rating” value (ryegrass, Italian [10]; [25]) was 80. For the same molecule, the “Plant response rating, Soybean” value (soybean [11]; [24]) was 0, the “Soybean plant response rating” value (soybean [11]; [25]) was 90 and the “Plant response rating, Wheat” value (wheat [12]; [24]) was 0. The “Wheat plant response rating” value (wheat [12]; [25]) was 0, the “Plant response rating, Barnyardgrass” value (barnyardgrass [13]; 125 g ai/ha, postemergence) was 40 and the “Plant response rating, Barnyardgrass” value (barnyardgrass [13]; Postemergence, 31 g ai/ha) was 10. For the same molecule, the “Plant response rating, Blackgrass” value (blackgrass [14]; 125 g ai/ha, postemergence) was 60, the “Plant response rating, Blackgrass” value (blackgrass [14]; Postemergence, 31 g ai/ha) was 0 and the “Plant response rating, Corn” value (corn [15]; 125 g ai/ha, postemergence) was 0. For the same molecule, the “Plant response rating, Corn” value (corn [15]; Postemergence, 31 g ai/ha) was 0, the “Plant response rating, Foxtail, Green” value (green foxtail [16]; 125 g ai/ha, postemergence) was 80 and the “Plant response rating, Foxtail, Green” value (green foxtail [16]; Postemergence, 31 g ai/ha) was 30. The “Plant response rating, Kochia” value (kochia [17]; 125 g ai/ha, postemergence) was 80, the “Plant response rating, Kochia” value (kochia [17]; Postemergence, 31 g ai/ha) was 20 and the “Plant response rating, Oat, Wild” value (oat, wild [18]; 125 g ai/ha, postemergence) was 0. The “Plant response rating, Oat, Wild” value (oat, wild [18]; Postemergence, 31 g ai/ha) was 0, the “Plant response rating, Pigweed, Palmer” value (pigweed, palmer [19]; 125 g ai/ha, postemergence) was 70 and the “Plant response rating, Pigweed, Palmer” value (pigweed, palmer [19]; Postemergence, 31 g ai/ha) was 20. The “Plant response rating, Ragweed” value (ragweed [20]; 125 g ai/ha, postemergence) was 60, the “Plant response rating, Ragweed” value (ragweed [20]; Postemergence, 31 g ai/ha) was 50 and the “Plant response rating, Ryegrass, Italian” value (ryegrass, Italian [21]; 125 g ai/ha, postemergence) was 50. For the same molecule, the “Plant response rating, Ryegrass, Italian” value (ryegrass, Italian [21]; Postemergence, 31 g ai/ha) was 20, the “Plant response rating, Soybean” value (soybean [22]; 125 g ai/ha, postemergence) was 100 and the “Plant response rating, Soybean” value (soybean [22]; Postemergence, 31 g ai/ha) was 100. For the same molecule, the “Plant response rating, Wheat” value (wheat [23]; 125 g ai/ha, postemergence) was 10, the “Plant response rating, Wheat” value (wheat [23]; Postemergence, 31 g ai/ha) was 10 and the “Plant response rating, Galium” value (galium; 125 g ai/ha, postemergence) was 100. For the same molecule, the “Plant response rating, Galium” value (galium; Postemergence, 31 g ai/ha) was 60, the “Plant response rating, Horseweed” value (horseweed; 125 g ai/ha, postemergence) was 0 and the “Plant response rating, Horseweed” value (horseweed; Postemergence, 31 g ai/ha) was 0.
